Source: patent US10407467B2, “Polymyxin derivatives and their use in combination therapy together with different antibiotics” (priority 2013, dated 2019)
Like-named read-outs stand apart in the source and are kept apart here.

How the values were obtained:
Experiment in all cases: MIC, sole activity (no second agent)
Format in all cases: cell-based
[1] = system: Escherichia coli; settings: for MIC: Escherichia coli; for MIC E. coli ATCC25922 / MIC E. coli NCTC 13441: Table 6A, no second agent, different supplier of Cation-adjusted MHB
Experimental: (§1) To evaluate the potency and spectrum of the compounds both alone and in combination with another agent, susceptibility testing was performed against up to four strains of each of the four Gram negative pathogens, Escherichia coli, Pseudomonas aeruginosa, Klebsiella pneumoniae and Acinetobacter baumannii.
(§2) The inoculum was prepared by making a direct suspension of isolated colonies (selected from an 18-24 hour Mueller-Hinton agar plate) adjusted to the 0.5 McFarland standard.
(§3) The assays were performed in duplicate.
(§4) In cases where the duplicate values varied by less than 2-fold, the lower of the two values is reported. If a variation of greater than 2-fold was observed, the assay was considered non-valid. Several of the compounds were subjected to multiple tests, and where this is the case, the MIC reflects the modal value obtained.
(§5) MICs were determined as described herein, except that a different supplier of Cation-adjusted MHB was used. […] Values are reported relative to Polymyxin B.

[2] = system: Klebsiella pneumoniae; settings: for MIC: Klebsiella pneumoniae; for MIC K. pneumoniae ATCC 4352 / MIC K. pneumoniae ATCC BAA-2146: Table 6A, no second agent, different supplier of Cation-adjusted MHB
Experimental: as §1, §2, §3, §4, §5

[3] = system: Pseudomonas aeruginosa; settings: for MIC: Pseudomonas aeruginosa; for MIC P. aeruginosa ATCC 27853 / MIC P. aeruginosa CCUG 59347: Table 6A, no second agent, different supplier of Cation-adjusted MHB
Experimental: as §1, §2, §3, §4, §5

[4] = system: Acinetobacter baumannii; settings: for MIC: Acinetobacter baumannii, NCTC13424; for MIC A. baumannii ATCC BAA-747 / MIC A. baumannii NCTC 13424: Table 6A, no second agent, different supplier of Cation-adjusted MHB
Experimental: as §1, §2, §3, §4, §5

Compound | MIC E. coli ATCC25922 [1] | MIC E. coli NCTC 13441 [1] | MIC K. pneumoniae ATCC 4352 [2] | MIC K. pneumoniae ATCC BAA-2146 [2] | MIC P. aeruginosa ATCC 27853 [3] | MIC P. aeruginosa CCUG 59347 [3] | MIC A. baumannii ATCC BAA-747 [4] | MIC A. baumannii NCTC 13424 [4] | other results
O=C(O)c1cn(C2CC2)c2cc(N3CCNCC3)c(F)cc2c1=O [Ciprofloxacin, reference compound] | – | – | – | – | – | – | – | – | MIC ([1]; ATCC25922, Second Agent none (Table 7B), read-out: MIC E. coli ATCC25922): ≤ 0.06 µg/mL; MIC ([1]; CCUG59342, Second Agent none (Table 7B), read-out: MIC E. coli CCUG 59342): 16 µg/mL; MIC ([1]; NCTC9001, Second Agent none (Table 7B), read-out: MIC E. coli (NCTC9001)): ≤ 0.06 µg/mL; MIC ([2]; ATCC4352, Second Agent none (Table 7B, by row order), read-out: MIC K. pneumoniae (ATCC4352)): ≤ 0.06 µg/mL; MIC ([2]; ATCCBAA1706, Second Agent none (Table 7B, by row order), read-out: MIC K. pneumoniae ATCC BAA-1706): 4 µg/mL; MIC ([2]; CCUG59348, Second Agent none (Table 7B), read-out: MIC K. pneumoniae CCUG 59348): > 32 µg/mL; MIC ([2]; NCTC13442, Second Agent none (Table 7B), read-out: MIC K. pneumoniae NCTC 13442): 2 µg/mL; MIC ([3]; ATCC27853, Second Agent none (Table 7B, by row order), read-out: MIC P. aeruginosa ATCC 27853): 0.125 µg/mL; MIC ([3]; CCUG59626, Second Agent none (Table 7B, by row order), read-out: MIC P. aeruginosa CCUG 59626): 0.5 µg/mL; MIC ([4]; Second Agent none (Table 7B, by row order), read-out: MIC A. baumannii (NCTC 13424)): 1 µg/mL
CO[C@@H]1[C@@H](OC(N)=O)[C@@H](O)[C@H](Oc2ccc3c(O)c(NC(=O)c4ccc(O)c(CC=C(C)C)c4)c(=O)oc3c2C)OC1(C)C [Novobiocin, reference compound] | – | – | – | – | – | – | – | – | MIC ([1]; NCTC13441, Table 7H, E. coli NCTC 13441, second agent none, read-out: MIC E. coli NCTC 13441): > 32 µg/mL; MIC ([1]; Table 7H, E. coli ATCC25922, second agent none, read-out: MIC E. coli ATCC25922): 16 µg/mL; MIC ([2]; CCUG59349, Table 7H, K. pneumoniae CCUG 59349, second agent none, read-out: MIC K. pneumoniae CCUG 59349): > 32 µg/mL; MIC ([2]; Table 7H, K. pneumoniae ATCC4352, second agent none, read-out: MIC K. pneumoniae ATCC4352): 0.25 µg/mL; MIC ([3]; ATCC10145, Table 7H, P. aeruginosa ATCC 10145, second agent none, read-out: MIC P. aeruginosa ATCC 10145): > 32 µg/mL; MIC ([4]; Table 7H, A. baumannii NCTC 13424, second agent none): 4 µg/mL
(1- aminomethylcyclohexane) carbonyl polymyxin B nonapeptide [Example A34] | 8 micrograms/mL | >8 micrograms/mL | 8 micrograms/mL | >8 micrograms/mL | 0.5 micrograms/mL | 2 micrograms/mL | >8 micrograms/mL | >8 micrograms/mL | –
(2S)-2-Amino-3- cyclohexanepropanoyl polymyxin B nonapeptide [Example A16] | >8 micrograms/mL | >8 micrograms/mL | >8 micrograms/mL | >8 micrograms/mL | 1 micrograms/mL | >8 micrograms/mL | >8 micrograms/mL | >8 micrograms/mL | –
(2S)-Morpholine-2-carbonyl polymyxin B nonapeptide [Example A40] | 8 micrograms/mL | 4 micrograms/mL | 4 micrograms/mL | 8 micrograms/mL | 2 micrograms/mL | 4 micrograms/mL | >8 micrograms/mL | >8 micrograms/mL | –
(2S)-piperazine-2-carbonyl polymyxin B nonapeptide [Example A49] | 4 micrograms/mL | 4 micrograms/mL | 2 micrograms/mL | >8 micrograms/mL | 2 micrograms/mL | 4 micrograms/mL | >8 micrograms/mL | >8 micrograms/mL | –
(2S,3S)-3-Amino-2-hydroxy- 5-methylhexanoyl polymyxin B decapeptide [Example A18] | 8 micrograms/mL | 4 micrograms/mL | 4 micrograms/mL | 4 micrograms/mL | 0.5 micrograms/mL | 1 micrograms/mL | 4 micrograms/mL | 8 micrograms/mL | –
(2S,4R)-4-amino-1-(3-amino- 3-cyclohexylpropanoyl)pyrrolidine- 2-carbonyl polymyxin B nonapeptide [Example A29] | >8 micrograms/mL | >8 micrograms/mL | >8 micrograms/mL | >8 micrograms/mL | 0.25 micrograms/mL | >8 micrograms/mL | 2 micrograms/mL | 4 micrograms/mL | –
(R)-4-isobutylpiperazine-2- carbonyl polymyxin B nonapeptide [Example A46] | 2 micrograms/mL | 2 micrograms/mL | 2 micrograms/mL | 2 micrograms/mL | 1 micrograms/mL | 2 micrograms/mL | 8 micrograms/mL | 2 micrograms/mL | –
(R)-Piperidine-3-carbonyl polymyxin B nonapeptide [Example A24] | >8 micrograms/mL | >8 micrograms/mL | 8 micrograms/mL | >8 micrograms/mL | 1 micrograms/mL | 2 micrograms/mL | >8 micrograms/mL | >8 micrograms/mL | –
(S)-1-(2-methylpropyl)- piperidine-3-carbonyl polymyxin B nonapeptide [Example A48] | 1 micrograms/mL | 1 micrograms/mL | 0.5 micrograms/mL | 2 micrograms/mL | 1 micrograms/mL | 4 micrograms/mL | 4 micrograms/mL | 2 micrograms/mL | –
(S)-1-(3-methylbutanoyl) piperazine-2-carbonyl polymyxin B nonapeptide [Example A47] | >8 micrograms/mL | 8 micrograms/mL | >8 micrograms/mL | 8 micrograms/mL | 2 micrograms/mL | 8 micrograms/mL | 8 micrograms/mL | 4 micrograms/mL | –
Cis-4-Octyl piperidine-2- carbonyl polymyxin B nonapeptide. Isomer 1 [Example A43] | 8 micrograms/mL | >8 micrograms/mL | >8 micrograms/mL | – | 4 micrograms/mL | 8 micrograms/mL | >8 micrograms/mL | >8 micrograms/mL | –
Cis-4-Octyl piperidine-2- carbonyl polymyxin B nonapeptide. Isomer 2 [Example A44] | 2 micrograms/mL | 2 micrograms/mL | 2 micrograms/mL | – | 1 micrograms/mL | 2 micrograms/mL | 2 micrograms/mL | 4 micrograms/mL | –
D-Leu-polymyxin B nonapeptide [Example A42] | 2 micrograms/mL | 1 micrograms/mL | 2 micrograms/mL | 1 micrograms/mL | 0.5 micrograms/mL | 2 micrograms/mL | 4 micrograms/mL | 4 micrograms/mL | –
D-Phe polymyxin B nonapeptide [Example A35] | 1 micrograms/mL | 2 micrograms/mL | 2 micrograms/mL | 2 micrograms/mL | 0.25 micrograms/mL | 1 micrograms/mL | 8 micrograms/mL | 8 micrograms/mL | –
